The target of experiment [1] is T1, PI3K-α (PIK3CA) H1047R mutant (p110α/p85α complex) (Homo sapiens, UniProt P42336, H1047R).
T1 construct: Recombinant, catalytically active human full length PIK3KA Wild-type and H1047R mutant were purchased as 1:1 complex; 6xHis (N); purchased EMD Millipore Sigma 14-792M
The experiment can be described thus: PI3K-Alpha kinase (PIK3CA) biochemical ADP-Glo assay, H1047R mutant. The following applies: 20 uM ATP, 1 h pre-incubation. An excerpt: (§1) PI3K-Alpha kinase (PIK3CA) activity, wild-type and H1047R mutant and determining IC50 values for inhibitors
(§2) Recombinant, catalytically active human full length PIK3KA Wild-type and H1047R mutant were purchased as 1:1 complex of N-terminal 6× his tagged p110α (catalytic) and untagged p85α (regulatory subunit) from EMD Millipore Sigma (cat. no. 14-602M and 14-792M, respectively). PIP2diC8 (Avanti Polar Lipids Inc., cat. no. 850185) or Soy PI (Avanti Polar Lipids Inc., cat. No. 840044P) was used as lipid substrate. PIP2diC8 or PI lyophilized powder was dissolved in milliQ water to a concentration of 1 mM just before use. 10 mM stock compounds in DMSO were serially diluted 1:3 to generate a 10-point curve and plated using an acoustic liquid handler system (Echo 550 series instrument, Labcyte). A 10× intermediate compound plate (200 uM starting compound concentration and 10% DMSO) was prepared before starting the reaction. A typical reaction mixture (50 uL) comprised 40 mM HEPES buffer, pH 7.4, 25 mM MgCl2, 0.01% v/v triton-X-100, 1% v/v DMSO, 20 mM NaCl, 1-5 nM WT or H1047R PI3K protein, 20 uM ATP, and 50 uM PIP2diC8 or Soy PI. 1% DMSO buffer alone without test compound was employed as MAX control (full activity in the absence of any inhibitor), and no enzyme control was used to determine the level of background Adenosine 5′-diphosphate (ADP) (MIN control). First, Wild-type (WT) and H1047R mutant protein in kinase buffer with all components except ATP were incubated with or without compound at 27° C. for 1 h. After the pre-incubation, the reaction was initiated by the addition of 20 uL of 50 uM ATP (20 uM final concentration). The reaction was allowed to proceed until about 10% conversion of ATP (2 uM ADP) at 27° C. After that time, 5 uL of reaction was mixed with 5 uL of ADP-Kinase Glo Reagent (ADP-Glo Kinase assay kit, Promega cat. no. V9102) supplemented with MgCl2 10 mM to stop the reaction and deplete the remaining ATP for 40 min at room temperature. Then, 10 uL of Kinase Detection Reagent (ADP-Glo Kinase assay kit, Promega cat. no. V9102) was added to simultaneously convert ADP to ATP and allow the newly synthesized ATP to be measured using a luciferase/luciferin reaction. After 30 min at room temperature the light generated was measured using a luminometer (EnVision plate reader, Perkin Elmer). Process data through Genedata-Screener tool. Relative IC50 values are determined using luminescence units by calculating percent inhibition with respect to on-plate “MIN” and “MAX” controls. Data was analyzed using a 4-parameter nonlinear logistic equation (four-parameter logistic concentration-response curve): Y=bot+[(top−bot)/1+(x/IC50)slope] where Y=% inhibition, X=concentration yielding y% inhibition, Bottom=minimum value of y attained by curve, Top=maximum value of y attained by curve and Slope=steepness of curve at IC50. % Inh=[(median Max−x/median Max−median Min)]·100 IC50: concentration of compound that reduces a given response (ligand binding, enzyme response) by 50%. IC50 relative: concentration giving half the compound's maximum response.
(§3) For IC50 values shown in Table A, “A” means IC50<0.5 μM; “B” means IC50 ranging between 0.5 μM and 1.0 μM; “C” means IC50 ranging between 1 μM and 5 μM; “D” means IC50 ranging between 5 μM and 10 μM; “E” means IC50>10 μM.
(ADP-Glo turns the ADP formed in a reaction into a luminescent signal.)

The target in experiment [2] is T2, PI3K-α (PIK3CA) wild-type (WT) (p110α/p85α complex) (Homo sapiens, UniProt P42336).
T2 construct: Recombinant, catalytically active human full length PIK3KA Wild-type and H1047R mutant were purchased as 1:1 complex; 6xHis (N); purchased EMD Millipore Sigma 14-602M
The experiment in a line: PI3K-Alpha kinase (PIK3CA) biochemical ADP-Glo assay, wild-type. The following applies: 20 uM ATP, 1 h pre-incubation.
From the text: as §1, §2, §3

The mark [3] stands for this setting: PIP2diC8 lipid substrate (footnote 1).

T1 sequence (P42336 whole entry H1047R): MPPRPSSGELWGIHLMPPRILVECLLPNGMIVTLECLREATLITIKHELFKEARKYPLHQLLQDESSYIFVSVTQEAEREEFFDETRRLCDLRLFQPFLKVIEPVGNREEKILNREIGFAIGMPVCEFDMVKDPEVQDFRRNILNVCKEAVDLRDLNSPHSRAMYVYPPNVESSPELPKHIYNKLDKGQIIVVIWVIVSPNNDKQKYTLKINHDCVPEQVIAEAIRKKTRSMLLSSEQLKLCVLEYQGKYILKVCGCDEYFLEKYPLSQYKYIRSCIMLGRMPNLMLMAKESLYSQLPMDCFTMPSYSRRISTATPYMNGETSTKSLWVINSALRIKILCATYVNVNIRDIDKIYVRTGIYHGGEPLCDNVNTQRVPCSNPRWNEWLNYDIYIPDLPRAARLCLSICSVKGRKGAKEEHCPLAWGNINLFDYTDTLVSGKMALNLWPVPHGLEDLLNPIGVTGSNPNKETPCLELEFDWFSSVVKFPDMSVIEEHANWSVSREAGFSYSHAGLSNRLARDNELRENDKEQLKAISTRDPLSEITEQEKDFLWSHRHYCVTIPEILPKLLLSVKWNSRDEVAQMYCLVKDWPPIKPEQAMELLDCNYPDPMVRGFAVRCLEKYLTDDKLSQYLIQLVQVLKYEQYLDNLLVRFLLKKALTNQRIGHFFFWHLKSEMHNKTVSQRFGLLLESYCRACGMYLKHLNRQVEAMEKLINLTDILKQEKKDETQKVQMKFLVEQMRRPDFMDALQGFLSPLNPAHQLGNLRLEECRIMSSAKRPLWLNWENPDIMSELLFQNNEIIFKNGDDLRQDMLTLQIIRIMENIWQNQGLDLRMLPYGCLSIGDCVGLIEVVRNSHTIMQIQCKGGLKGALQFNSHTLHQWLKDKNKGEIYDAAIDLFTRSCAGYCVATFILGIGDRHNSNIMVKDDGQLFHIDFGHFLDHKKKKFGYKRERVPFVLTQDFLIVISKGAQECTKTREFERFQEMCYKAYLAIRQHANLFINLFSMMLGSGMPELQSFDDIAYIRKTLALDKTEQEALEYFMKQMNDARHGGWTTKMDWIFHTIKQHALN
T1 sequence (P27986 whole entry partner): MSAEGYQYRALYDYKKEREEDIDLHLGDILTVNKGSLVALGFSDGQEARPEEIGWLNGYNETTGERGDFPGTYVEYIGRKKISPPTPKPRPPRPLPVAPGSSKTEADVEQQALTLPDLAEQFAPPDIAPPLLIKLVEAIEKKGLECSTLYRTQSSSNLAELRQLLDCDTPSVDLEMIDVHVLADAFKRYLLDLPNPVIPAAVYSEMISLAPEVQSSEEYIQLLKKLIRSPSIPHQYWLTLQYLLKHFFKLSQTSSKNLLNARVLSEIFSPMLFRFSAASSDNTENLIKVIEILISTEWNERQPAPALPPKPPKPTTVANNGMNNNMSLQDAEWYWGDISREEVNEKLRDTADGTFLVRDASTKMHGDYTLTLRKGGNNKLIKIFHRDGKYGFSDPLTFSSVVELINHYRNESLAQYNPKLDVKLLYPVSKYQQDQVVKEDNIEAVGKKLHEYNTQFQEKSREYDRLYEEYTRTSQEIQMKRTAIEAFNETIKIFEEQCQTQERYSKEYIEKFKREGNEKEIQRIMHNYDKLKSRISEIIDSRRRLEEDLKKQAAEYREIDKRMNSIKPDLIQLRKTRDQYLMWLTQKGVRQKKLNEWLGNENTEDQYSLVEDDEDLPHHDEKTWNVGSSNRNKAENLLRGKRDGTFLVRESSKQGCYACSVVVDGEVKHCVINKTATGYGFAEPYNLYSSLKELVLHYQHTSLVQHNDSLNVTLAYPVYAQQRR

`Cc1cc(C(C)Nc2ccccc2C(=O)O)c2oc(C3CCCCC3)cc(=O)c2c1` (single isomer, unassigned; isomer 1) [Example 8, 2-[1-(2-Cyclohexyl-6-methyl-4-oxo-chromen-8-yl)ethylamino]benzoic acid, Isomer 1]: the IC50 is 1 to 5 µM in experiment [1] (setting [3]) and > 10 µM in experiment [2] (setting [3]).
In the case of `Cc1cc(C(C)Nc2ccccc2C(=O)O)c2oc(C3CCC(C)(C)CC3)cc(=O)c2c1` (single isomer, unassigned; isomer 1) [Example 10, 2-[1-[2-(4,4-Dimethylcyclohexyl)-6-methyl-4-oxo-chromen-8-yl]ethylamino]benzoic acid, Isomer 1], the figures for the concentration for half-maximal inhibition (IC50) in experiment [1] (setting [3]) and in experiment [2] (setting [3]) were < 0.5 µM and 1 to 5 µM, respectively.
With `CC(Nc1ccccc1C(=O)O)c1cccc2c(=O)cc(C3CCCCC3)oc12` (single isomer, unassigned; isomer 1) [Example 12, 2-[1-(2-Cyclohexyl-4-oxo-chromen-8-yl)ethylamino]benzoic acid, Isomer 1], the IC50 in experiment [1] (setting [3]) and in experiment [2] (setting [3]) was > 10 µM throughout.
For `Cc1cc(C(C)Nc2ccccc2C(=O)O)c2oc(C3CCC(F)(F)CC3)cc(=O)c2c1` (single isomer, unassigned; isomer 1) [Example 14, 2-[1-[2-(4,4-Difluorocyclohexyl)-6-methyl-4-oxo-chromen-8-yl]ethylamino]benzoic acid, Isomer 1], the IC50 in experiment [1] (Soy PI lipid substrate) and in experiment [2] (Soy PI lipid substrate) was > 10 µM throughout.
Take `Cc1cc(C(C)Nc2ccccc2C(=O)O)c2oc(C3CCC(F)(F)CC3)c(C)c(=O)c2c1` (single isomer, unassigned; isomer 1) [Example 16, 2-[1-[2-(4,4-Difluorocyclohexyl)-3,6-dimethyl-4-oxo-chromen-8-yl]ethylamino]benzoic acid, Isomer 1]: the figures for the 50% inhibitory concentration (IC50) in experiment [1] (Soy PI lipid substrate) and in experiment [2] (Soy PI lipid substrate) were < 0.5 µM and 0.5 to 1 µM, respectively.
In the same order, the values of `Cc1cc(C(C)Nc2ccccc2C(=O)O)c2oc(C3Cc4ccccc4C3)cc(=O)c2c1` (single isomer, unassigned; isomer 1) [Example 18, 2-[1-(2-Indan-2-yl-6-methyl-4-oxo-chromen-8-yl)ethylamino]benzoic acid, Isomer 1] are 1 to 5 µM and > 10 µM.
In the same order, the values of `Cc1cc(C(C)Nc2ccccc2C(=O)O)c2oc(C3Cc4ccccc4C3)c(C)c(=O)c2c1` (single isomer, unassigned; isomer 1) [Example 21, 2-[1-(2-Indan-2-yl-3,6-dimethyl-4-oxo-chromen-8-yl)ethylamino]benzoic acid, Isomer 1] are < 0.5 µM and 1 to 5 µM.
`Cc1cc(C(C)Nc2ccccc2C(=O)O)c2oc(C3CCCCC3)cc(=O)c2c1` (single isomer, unassigned; isomer 2) [Example 9, 2-[1-(2-Cyclohexyl-6-methyl-4-oxo-chromen-8-yl)ethylamino]benzoic acid, Isomer 2]: the concentration for half-maximal inhibition (IC50) in experiment [1] (setting [3]) and in experiment [2] (setting [3]) was < 0.5 µM each time.
As to `Cc1cc(C(C)Nc2ccccc2C(=O)O)c2oc(C3CCC(C)(C)CC3)cc(=O)c2c1` (single isomer, unassigned; isomer 2) [Example 11, 2-[1-[2-(4,4-Dimethylcyclohexyl)-6-methyl-4-oxo-chromen-8-yl]ethylamino]benzoic acid, Isomer 2], the IC50 in experiment [1] (setting [3]) and in experiment [2] (setting [3]) was > 10 µM in each case.
As to `CC(Nc1ccccc1C(=O)O)c1cccc2c(=O)cc(C3CCCCC3)oc12` (single isomer, unassigned; isomer 2) [Example 13, 2-[1-(2-Cyclohexyl-4-oxo-chromen-8-yl)ethylamino]benzoic acid, Isomer 2], the IC50 in experiment [1] (Soy PI lipid substrate) is < 0.5 µM; in experiment [2] (Soy PI lipid substrate), > 10 µM.
In the same order, the values of `Cc1cc(C(C)Nc2ccccc2C(=O)O)c2oc(C3CCC(F)(F)CC3)cc(=O)c2c1` (single isomer, unassigned; isomer 2) [Example 15, 2-[1-[2-(4,4-Difluorocyclohexyl)-6-methyl-4-oxo-chromen-8-yl]ethylamino]benzoic acid, Isomer 2] are < 0.5 µM and > 10 µM.
In the case of `Cc1cc(C(C)Nc2ccccc2C(=O)O)c2oc(C3CCC(F)(F)CC3)c(C)c(=O)c2c1` (single isomer, unassigned; isomer 2) [Example 17, 2-[1-[2-(4,4-Difluorocyclohexyl)-3,6-dimethyl-4-oxo-chromen-8-yl]ethylamino]benzoic acid, Isomer 2], the concentration for half-maximal inhibition (IC50) in experiment [1] (Soy PI lipid substrate) and in experiment [2] (Soy PI lipid substrate) was > 10 µM each time.
`Cc1cc(C(C)Nc2ccccc2C(=O)O)c2oc(C3Cc4ccccc4C3)cc(=O)c2c1` (single isomer, unassigned; isomer 2) [Example 19, 2-[1-(2-Indan-2-yl-6-methyl-4-oxo-chromen-8-yl)ethylamino]benzoic acid, Isomer 2]: the IC50 was < 0.5 µM in experiment [1] (Soy PI lipid substrate) and 1 to 5 µM in experiment [2] (Soy PI lipid substrate).
Consider `Cc1cc(C(C)Nc2ccccc2C(=O)O)c2oc(C3Cc4ccccc4C3)c(C)c(=O)c2c1` (single isomer, unassigned; isomer 2) [Example 22, 2-[1-(2-Indan-2-yl-3,6-dimethyl-4-oxo-chromen-8-yl)ethylamino]benzoic acid, Isomer 2], for which the concentration for half-maximal inhibition (IC50) in experiment [1] (Soy PI lipid substrate) and in experiment [2] (Soy PI lipid substrate) was > 10 µM throughout.
Regarding `Cc1cc(C(C)Nc2ccccc2C(=O)O)c2oc(C3(c4ccccc4)CC3)cc(=O)c2c1` (stereo not drawn) [Example 7, 2-[1-[6-Methyl-4-oxo-2-(1-phenylcyclopropyl)chromen-8-yl]ethylamino]benzoic acid; 2,2,2-trifluoroacetic acid], the IC50 in experiment [1] (Soy PI lipid substrate) is < 0.5 µM; in experiment [2] (Soy PI lipid substrate) it was > 10 µM.

One may read the IC50 as the concentration needed to halve the response being measured.

These data come from patent US12030862B2, “Allosteric chromenone inhibitors of phosphoinositide 3-kinase (PI3K) for the treatment of disease” (Petra Pharma Corporation, priority 2021, dated 2024).
